Reference: ChEMBL document CHEMBL3044672, “N9- and N7-(Chloromethyl Phenymethyl)Chloropurine Derivatives from , '-Dichloroxylenes: Synthesis and Anticancer Activity” (2005)

Experiments:
Type in all cases: functional
[1] = system: SK-MEL-5; experiment: Cytotoxicity against Homo sapiens (human) SK-MEL-5 cells after 48 hr by sulforhodamine B assay; settings: SK-MEL-5, 48 h
[2] = system: NCI-H23; experiment: Cytotoxicity against Homo sapiens (human) NCI-H23 cells after 48 hr by sulforhodamine B assay; settings: NCI-H23, 48 h
[3] = system: SF-268; experiment: Cytotoxicity against Homo sapiens (human) SF268 cells assessed as cell growth at 10^-4 M after 48 hr by […] assay; settings: SF-268, 48 h, read-out: Activity
[4] = system: OVCAR-8; experiment: Cytotoxicity against Homo sapiens (human) OVCAR8 cells after 48 hr by sulforhodamine B assay; settings: OVCAR-8, 48 h
[5] = system: SNB-19; experiment: Cytotoxicity against Homo sapiens (human) SNB19 cells after 48 hr by sulforhodamine B assay; settings: SNB-19, 48 h
[6] = system: COLO 205; experiment: Cytotoxicity against Homo sapiens (human) COLO205 cells after 48 hr by sulforhodamine B assay; settings: COLO 205, 48 h
[7] = system: NCI-H460; experiment: Cytotoxicity against Homo sapiens (human) NCI-H460 cells assessed as cell growth at 10^-4 M after 48 hr by Alamar blue assay; settings: NCI-H460, 48 h, read-out: Activity
[8] = system: HOP-62; experiment: Cytotoxicity against Homo sapiens (human) HOP62 cells after 48 hr by sulforhodamine B assay; settings: HOP-62, 48 h
[9] = system: SN12C; experiment: Cytotoxicity against Homo sapiens (human) SN12C cells after 48 hr by sulforhodamine B assay
[10] = system: K562; experiment: Cytotoxicity against Homo sapiens (human) K562 cells after 48 hr by sulforhodamine B assay; settings: K562, 48 h
[11] = system: SF-539; experiment: Cytotoxicity against Homo sapiens (human) SF539 cells after 48 hr by sulforhodamine B assay; settings: SF-539, 48 h
[12] = system: SK-OV-3; experiment: Cytotoxicity against Homo sapiens (human) SKOV3 cells after 48 hr by sulforhodamine B assay; settings: SK-OV-3, 48 h
[13] = system: UACC-62; experiment: Cytotoxicity against Homo sapiens (human) UACC62 cells after 48 hr by sulforhodamine B assay; settings: UACC-62, 48 h
[14] = system: BT-549; experiment: Cytotoxicity against Homo sapiens (human) BT549 cells after 48 hr by sulforhodamine B assay; settings: BT-549, 48 h
[15] = system: MCF7; experiment: Cytotoxicity against Homo sapiens (human) MCF7 cells after 48 hr by sulforhodamine B assay; settings: MCF7, 48 h
[16] = system: LOX IMVI; experiment: Cytotoxicity against Homo sapiens (human) LOXIMVI cells after 48 hr by sulforhodamine B assay
[17] = system: SF-268; experiment: Cytotoxicity against Homo sapiens (human) SF268 cells after 48 hr by sulforhodamine B assay; settings: SF-268, 48 h
[18] = system: RXF 393; experiment: Cytotoxicity against Homo sapiens (human) RXF393 cells after 48 hr by sulforhodamine B assay; settings: RXF 393, 48 h
[19] = system: MDA-MB-231; experiment: Cytotoxicity against Homo sapiens (human) MDA-MB-231 cells after 48 hr by sulforhodamine B assay; settings: MDA-MB-231, 48 h
[20] = system: NCI-H522; experiment: Cytotoxicity against Homo sapiens (human) NCI-H522 cells after 48 hr by sulforhodamine B assay; settings: NCI-H522, 48 h
[21] = system: KM12; experiment: Cytotoxicity against Homo sapiens (human) KM12 cells after 48 hr by sulforhodamine B assay; settings: KM12, 48 h
[22] = system: PC-3; experiment: Cytotoxicity against Homo sapiens (human) PC3 cells after 48 hr by sulforhodamine B assay; settings: PC-3, 48 h
[23] = system: OVCAR-4; experiment: Cytotoxicity against Homo sapiens (human) OVCAR4 cells after 48 hr by sulforhodamine B assay; settings: OVCAR-4, 48 h
[24] = system: RPMI-8226; experiment: Cytotoxicity against Homo sapiens (human) RPMI8226 cells after 48 hr by sulforhodamine B assay; settings: RPMI-8226, 48 h
[25] = system: SNB-75; experiment: Cytotoxicity against Homo sapiens (human) SNB75 cells after 48 hr by sulforhodamine B assay; settings: SNB-75, 48 h
[26] = system: HT-29; experiment: Cytotoxicity against Homo sapiens (human) HT-29 cells after 48 hr by sulforhodamine B assay; settings: HT-29, 48 h
[27] = system: EKVX; experiment: Cytotoxicity against Homo sapiens (human) EKVX cells after 48 hr by sulforhodamine B assay
[28] = read-out: LC50 (the source's name)

`ClCc1ccccc1Cn1cnc2c(Cl)ncnc21` showed a GI50 [1] of 1.41 µM, an LC50 [1] of 5.88 µM and a TGI [1] of 2.88 µM. It also gave a GI50 [2] of 2.04 µM, a TGI [2] of 4.36 µM and a CC50 [2, 28] of 9.33 µM. The growth at 100 µM [3] was 0%, the GI50 [4] was 2.24 µM and the LC50 (concentration killing 50% of cells) [4] was 20.4 µM. For the same compound, the TGI [4] was 5.24 µM, the GI50 [5] was 5.37 µM and the LC50 [5] was over 100 µM. The TGI [5] was over 100 µM, the GI50 [6] was 3.89 µM and the TGI [6] was over 100 µM. It also gave a CC50 [6, 28] of over 100 µM, a growth at 100 µM [7] of 0% and a GI50 [8] of 2.51 µM. It also gave a TGI [8] of 6.02 µM, a CC50 [8, 28] of 19.9 µM and a GI50 [9] of 3.38 µM. It also gave an LC50 (50% lethal concentration) [9] of 95.5 µM, a TGI [9] of 8.71 µM and a GI50 [10] of 1.2 µM. For the same compound, the TGI [10] was 5.12 µM, the CC50 [10, 28] was over 100 µM and the GI50 [11] was 10.7 µM. It also gave an LC50 (concentration killing 50% of cells) [11] of 55 µM, a TGI [11] of 24 µM and a GI50 [12] of 4.17 µM. It also gave an LC50 [12] of 85.1 µM, a TGI [12] of 15.8 µM and a GI50 [13] of 3.31 µM. The LC50 (concentration causing 50% net cell kill) [13] was 28.2 µM, the TGI [13] was 6.6 µM and the GI50 [14] was 1.99 µM. It also gave an LC50 (50% lethal concentration) [14] of 19.9 µM, a TGI [14] of 5.49 µM and a GI50 [15] of 11 µM. The LC50 (concentration killing 50% of cells) [15] was over 100 µM, the TGI [15] was over 100 µM and the GI50 [16] was 2.13 µM. The LC50 [16] was over 100 µM, the TGI [16] was 5.24 µM and the GI50 [17] was 3.23 µM. The TGI [17] was 10.9 µM, the CC50 [17, 28] was over 100 µM and the GI50 [18] was 0.44 µM. For the same compound, the TGI [18] was 2.34 µM, the CC50 [18, 28] was 7.41 µM and the GI50 [19] was 3.02 µM. The LC50 [19] was 45.7 µM, the TGI [19] was 7.41 µM and the GI50 [20] was 1.82 µM. For the same compound, the TGI [20] was 7.24 µM, the CC50 [20, 28] was over 100 µM and the GI50 [21] was 16.6 µM. For the same compound, the TGI [21] was 33.1 µM, the CC50 [21, 28] was 66.1 µM and the GI50 [22] was 3.02 µM. It also gave an LC50 (concentration causing 50% cell kill) [22] of 53.7 µM, a TGI [22] of 10.5 µM and a GI50 [23] of 3.38 µM. It also gave an LC50 (concentration killing 50% of cells) [23] of 45.7 µM, a TGI [23] of 12.3 µM and a GI50 [24] of 14.1 µM. For the same compound, the TGI [24] was 40.7 µM, the CC50 [24, 28] was over 100 µM and the GI50 [25] was 2.88 µM. The TGI [25] was 11 µM, the CC50 [25, 28] was 39.8 µM and the GI50 [26] was 3.54 µM. For the same compound, the TGI [26] was over 100 µM, the CC50 [26, 28] was over 100 µM and the GI50 [27] was 3.09 µM. It also gave a TGI [27] of 11 µM and a CC50 [27, 28] of 37.1 µM.
